Results as given in PMC10635799, “Analogs of FTY720 inhibit TRPM7 but not S1PRs and exert multimodal anti-inflammatory effects” (The Journal of General Physiology, 2023).
“Also recorded” adds a separate entry of the source. Like-named read-outs stand apart in the source and are kept apart here.

Assays:
[1] = tested on: small-conductance Ca^2+-activated K^+ (SK) channels; set-up: method as in Diness et al., 2010; settings: ref Diness et al., 2010; read-out: IC50 on SK-family channels; cited from earlier work
[2] = tested on: TRPM7; settings: cited from earlier work; for IC50: read-out: IC50 for TRPM7 inhibition
[3] = tested on: BMDMs; experiment: LPS-induced inflammation assay in WT and TRPM7 KO BMDMs (qRT-PCR); assay type: cell-based, mice; settings: 10 µM VPC4, 10 µM AAL-149, 5 µM FTY720, 30 μM NS8593
Procedure: All cells were cultured at 37°C with 5% CO2. HEK 293T cells (CRL-3216; ATCC), HeLa cells (CCL-2; ATCC), RAW 264.7 macrophages (TIB-71; ATCC), and BV-2 microglial cells (ABC-TC212S; AcceGen Biotech) were cultured in DMEM (11995065; Gibco) with 10% fetal bovine serum (FBS; Avantor Seradigm Premium Grade Fetal Bovine Serum 97068-085). FBS was heat-inactivated prior to use at 56°C for 30 min. BMDMs were isolated and cultured as previously described ([Schappe et al., 2018]) and differentiated into mature macrophages over 7 d through culture in BMDM media (RPMI 1640, 10% FBS, and 20% L-929 culture supernatant; Gibco).
(§1) RAW 264.7 macrophages or BMDMs were seeded at a density of 250,000 cells per well into a 12-well tissue culture plate in 1 ml of media and left to incubate overnight. The indicated drug or vehicle control was added to each well, and the plate was agitated and left to incubate for 10 min. The cells were then treated with LPS (1 µg/ml) or an equivalent volume of PBS, agitated, and left to incubate for 3 h. Cells were washed with PBS and then RNA isolation was performed using RNeasy Plus Micro Kit (74134; Qiagen). cDNA was produced using GoScript Reverse Transcriptase (A5004; Promega) and a quantitative PCR was performed using SensiFast SYBR (98020; Bioline) and Bio-Rad CFX Connect thermocycler. Each datum represents an individual, biological replicate that is the mean of duplicate technical replicates. Fold-changes are all reported relative to untreated controls for each experiment and were calculated using the ∆∆Ct method, with β2-microglobulin used as the housekeeping gene for each sample. The experiment was performed similarly with BV-2 microglia and alveolar macrophages, except that cells were plated at a density of 100,000 cells per well into a 24-well tissue culture plate with 1 ml of media per well.

[4] = molecular target: T1, mouse TRPM7 (Mus musculus, UniProt Q923J1); experiment: Whole-cell patch clamp of TRPM7 current (IM7) in HEK 293T cells overexpressing mouse TRPM7; assay type: cell-based
T1 construct: expressed in transfected cells; host or cells: HEK 293T cells (CRL-3216; ATCC), transient transfection with jetOPTIMUS, co-transfected eGFP as a separate plasmid
Procedure: To overexpress TRPM7, HEK 293T cells were plated at a density of 500,000 cells per well (day 0), transfected at 80–90% confluency (day 1), and were patched 24–36 h after transfection (day 2). TRPM7 overexpression was performed using WT mouse TRPM7 (2.5 µg plasmid DNA; [Desai et al., 2012]) and jetOPTIMUS DNA Transfection Reagent (101000006; Polyplus). To enhance the selection rate of TRPM7-overexpressing cells, eGFP (#22152; Addgene) was included at a 1:10 dilution (0.25 µg) and only GFP-positive cells were patched.
Whole-cell patch clamp electrophysiology was performed as described previously ([Schappe et al., 2022]). Briefly, the external solution contained (in mM) 140 Na-methanesulfonate, 5 Cs-gluconate, 2.5 CaCl2, and 10 HEPES, pH 7.4 (adjusted with NaOH), at an osmolality of 280–290 mOsm/kg. The internal pipette solution contained (in mM) 115 Cs-gluconate, 3 NaCl, 0.75 CaCl2, 10 HEPES, 10 HEDTA, 1.8 Cs4-BAPTA, and 2 Na2ATP, pH 7.3 (adjusted with CsOH), at an osmolality of 273 mOsm/kg. Intracellular free [Ca^2+] was estimated to be ∼100 nM using the online WEBMAXC standard calculator at https://somapp.ucdmc.ucdavis.edu/pharmacology/bers/maxchelator/webmaxc/webmaxcS.htm ([Bers et al., 2010]). Recordings were captured in pCLAMP 9 (Molecular Devices) using a 400-ms ramp protocol from −100 to +100 mV and a holding potential of 0 mV. Sampling was performed at 10 kHz with a 5 kHz low-pass band filter using an Axopatch 200B amplifier (Molecular Devices). All electrophysiology experiments were conducted at RT (∼23°C). […] Similarly, the minimum current for each inhibitor dose is taken as the stable minimum current observed after the drug has had time to exert an effect and after the flow-driven transient increase has subsided.
Data were analyzed using Microsoft Excel, Prism 9.5 (GraphPad Software), and Origin Pro 7.5 (OriginLab). Chemical structures were created using ChemDraw Professional 20.1.1 (PerkinElmer). Electrophysiology traces were plotted using Origin Pro 7.5, and the remaining data were plotted and statistically tested using Prism. Outliers were determined using the robust regression and outlier removal (ROUT) function within Prism. IC50 values were determined by plotting the percentage of maximum current observed as a function of applied drug concentration. A non-linear regression was fit using a standard Hill slope of −1.0 and the model: Y=100/[1+([Inhibitor]/IC50)]. Where appropriate, data are presented as individual values; otherwise the sample sizes and precision measures are indicated in the figure legends. P values of <0.05 were considered statistically significant.

[5] = tested on: lymphocytes; set-up: method as in Brinkmann et al., 2002; Zhu et al., 2007; settings: ref Brinkmann et al., 2002; Zhu et al., 2007; cited from earlier work
[6] = tested on: RAW 264.7 macrophages; experiment: LPS-induced inflammatory gene expression (qRT-PCR) in RAW 264.7 macrophages; assay type: cell-based; settings: LPS 1 µg/ml for 3 h
Procedure: as §1, with “μg/ml)” for “µg/ml)”, “([…];” for “(A5004;”, “ΔΔCt” for “∆∆Ct”

[7] = tested on: HeLa cells; experiment: LDH-release cytotoxicity assay; assay type: cell-based; settings: 24 h
Procedure: WT HeLa cells were plated at a density of 10,000 cells per well into a 96-well tissue culture microplate (3610; Costar). AAL-149, VPC01091.4, or vehicle at 0.1, 1, 5, 10, and 25 μM was added to cells with media for a final volume of 100 μl and incubated for 24 h. LDH release was quantified using a CyQUANT LDH Cytotoxicity Assay (C20300; Thermo Fisher Scientific) and a FlexStation 3 plate reader using SoftMax […] (Molecular Devices).

[8] = tested on: S1P receptors; settings: cited from earlier work; for Effect on S1PRs: non-phosphorylated form, ref Qin et al., 2013
[9] = non-phosphorylated form, ref Qin et al., 2013

T1 sequence (Q923J1 whole entry): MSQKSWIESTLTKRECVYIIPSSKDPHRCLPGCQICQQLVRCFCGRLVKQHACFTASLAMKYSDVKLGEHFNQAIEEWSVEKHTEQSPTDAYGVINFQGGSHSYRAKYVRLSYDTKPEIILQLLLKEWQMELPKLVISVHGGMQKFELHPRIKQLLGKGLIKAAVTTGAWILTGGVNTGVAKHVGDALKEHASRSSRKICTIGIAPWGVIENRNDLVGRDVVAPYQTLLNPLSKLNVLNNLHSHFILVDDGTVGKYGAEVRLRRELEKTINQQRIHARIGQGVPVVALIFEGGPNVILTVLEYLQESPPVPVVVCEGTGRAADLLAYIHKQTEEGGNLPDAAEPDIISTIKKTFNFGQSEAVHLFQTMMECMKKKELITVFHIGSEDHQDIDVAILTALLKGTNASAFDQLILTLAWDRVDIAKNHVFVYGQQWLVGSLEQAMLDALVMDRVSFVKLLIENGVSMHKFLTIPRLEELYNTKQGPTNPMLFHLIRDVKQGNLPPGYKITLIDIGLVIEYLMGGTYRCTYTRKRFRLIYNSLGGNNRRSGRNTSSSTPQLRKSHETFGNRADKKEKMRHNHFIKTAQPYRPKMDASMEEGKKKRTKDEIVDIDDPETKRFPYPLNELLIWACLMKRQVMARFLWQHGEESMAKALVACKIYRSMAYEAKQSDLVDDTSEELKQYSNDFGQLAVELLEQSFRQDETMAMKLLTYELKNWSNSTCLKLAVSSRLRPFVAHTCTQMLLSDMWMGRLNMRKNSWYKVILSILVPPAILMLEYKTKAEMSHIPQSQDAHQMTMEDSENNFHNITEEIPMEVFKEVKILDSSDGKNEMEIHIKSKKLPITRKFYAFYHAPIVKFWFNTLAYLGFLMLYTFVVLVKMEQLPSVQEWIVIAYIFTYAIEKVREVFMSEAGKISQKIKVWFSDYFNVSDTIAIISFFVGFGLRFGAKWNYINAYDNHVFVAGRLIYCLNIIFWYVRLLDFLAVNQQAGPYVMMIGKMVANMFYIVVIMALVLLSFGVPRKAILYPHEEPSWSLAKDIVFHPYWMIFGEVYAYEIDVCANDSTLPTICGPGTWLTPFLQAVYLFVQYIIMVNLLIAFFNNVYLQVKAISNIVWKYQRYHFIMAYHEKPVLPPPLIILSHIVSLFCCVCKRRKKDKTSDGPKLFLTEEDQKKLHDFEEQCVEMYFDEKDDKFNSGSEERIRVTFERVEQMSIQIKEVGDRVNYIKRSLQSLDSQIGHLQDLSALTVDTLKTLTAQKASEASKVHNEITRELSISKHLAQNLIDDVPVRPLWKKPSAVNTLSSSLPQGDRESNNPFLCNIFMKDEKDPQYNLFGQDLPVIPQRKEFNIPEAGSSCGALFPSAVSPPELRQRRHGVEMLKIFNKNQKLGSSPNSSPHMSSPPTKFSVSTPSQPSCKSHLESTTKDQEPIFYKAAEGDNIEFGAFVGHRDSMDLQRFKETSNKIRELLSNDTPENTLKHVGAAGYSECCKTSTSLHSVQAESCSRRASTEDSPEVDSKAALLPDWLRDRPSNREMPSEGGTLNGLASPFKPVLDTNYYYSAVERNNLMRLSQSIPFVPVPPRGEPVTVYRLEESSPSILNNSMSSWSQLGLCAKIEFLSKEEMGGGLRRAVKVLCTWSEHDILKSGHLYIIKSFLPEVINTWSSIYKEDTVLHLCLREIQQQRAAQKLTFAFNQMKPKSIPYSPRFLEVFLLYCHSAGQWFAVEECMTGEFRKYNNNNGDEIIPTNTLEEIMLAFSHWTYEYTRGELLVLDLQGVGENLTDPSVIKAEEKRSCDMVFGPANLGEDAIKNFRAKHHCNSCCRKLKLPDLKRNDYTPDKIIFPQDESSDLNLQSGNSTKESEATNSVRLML

For c1ccc2c(c1)CCC[C@H]2Nc1nc2ccccc2[nH]1 [NS8593, (R)-N-(benzimidazol-2-yl)-1,2,3,4-tetrahydro-1-naphtylamine], the IC50 [1] is given as 420 to 730 nM, the IC50 ([2]; ref Chubanov et al., 2012) is given as 1600 nM and the “LPS-induced IL-1β expression in TRPM7 KO BMDMs” value (from here on “LPS-induced IL-1β expression”) [3] is given as “able to suppress”.

In the case of CCCCCCCCc1ccc([C@H]2CC[C@](N)(CO)C2)cc1 [VPC01091.1, ((1R,3S)-1-amino-3-(4-octylphenyl)cyclopentyl)methanol], the “Effect on whole-cell TRPM7 current (IM7)” value ([4]; 10 µM) is reported as “inhibited”.

In the case of C=C1CC/C=C(\C)CC[C@@H]2C([C@H](C/C=C(\C)COC(C)=O)OC(C)=O)=CO[C@H](OC(C)=O)[C@@H]12 [Waixenicin A], the “Time to suppress ITRPM7” value ([2]; 10 μM, ref Zierler et al., 2011) is listed as “up to 200 s”, the IC50 ([2]; Mg^2+-free conditions, ref Zierler et al., 2011) is listed as 7000 nM and the IC50 ([2]; recording conditions that limit the development of TRPM7 currents, ref Zierler et al., 2011) is listed as 16 nM.

Compound CCCCCCCCCCCCC/C=C/[C@H](O)[C@@H](N)CO [L-threo-sphingosine, L-threo-(2S,3S)-sphingosine, reference compound] has an IC50 ([4]; peak current at +100 mV, HEK 293T overexpressing mouse TRPM7, Hill slope -1.0, read-out: IC50 for inhibition of TRPM7 current (IM7)) of 3380 nM.

For CCCCCCCOc1ccc(CC[C@](C)(N)CO)cc1 [AAL-149, (2S)-2-amino-4-(4-heptoxyphenyl)-2-methylbutan-1-ol], the “Lymphopenia when administered to mice” value [5] is listed as “do not evoke lymphopenia”, the “LPS-stimulated IL-1β gene expression” value ([6]; 10 µM pretreatment) is listed as “completely abrogated” and the “Cytotoxicity (LDH release)” value ([7]; dosages up to 10 µM) is listed as “did not result in any significant cytotoxicity”. For the same compound, the “Mean cytotoxicity (LDH release)” value ([7]; each dose up to 25 µM) was under 5%, the “LPS-induced IL-1β expression” value [3] was “able to suppress” and the “Activity at S1P receptors” value ([8]; ref Brinkmann et al., 2002, Zhu et al., 2007) was “not active”. It also gave an IC50 [4] of 1080 nM.

For CCCCCCCCCCCCC/C=C/[C@@H](O)[C@@H](N)CO [sphingosine, D-erythro-sphingosine, reference compound], the IC50 [2, 9] is given as 590 nM and the “Effect on S1PRs” value [8] is given as “no effect”.

In the case of CCCCCCCCc1ccc([C@H]2CC[C@@](N)(COP(=O)(O)O)C2)cc1 [VPC01091.2-P, ((1S,3S)-1-amino-3-(4-octylphenyl)cyclopentyl)methyl dihydrogen phosphate], the “LPS-stimulated IL-1β gene expression” value ([6]; pretreatment, concentration not given) is reported as “no significant inhibition” and the “Effect on whole-cell TRPM7 current (IM7)” value ([4]; 10 µM) is reported as “negligible effect; also recorded: no effect”.

For CCCCCCCCc1ccc(CCC(N)(CO)CO)cc1 [FTY720, fingolimod], the IC50 [2, 9] is listed as 720 nM, the “LPS-induced IL-1β expression” value [3] is listed as “able to suppress” and the “Effect on S1PRs” value [8] is listed as “no effect”. The “Effect on whole-cell TRPM7 current (IM7)” value ([4]; 5 µM) was “inhibited; also recorded: able to inhibit”.

In the case of CCCCCCCCCCCCC/C=C/[C@@H](O)[C@@H](N)COP(=O)(O)O [S1P, sphingosine-1-phosphate], the “Effect of phosphorylated forms on IM7” value ([2]; ref Qin et al., 2013) is listed as “do not inhibit”.

In the case of CCCCCCCCc1ccc([C@@H]2CC[C@](N)(CO)C2)cc1 [VPC01091.3, ((1R,3R)-1-amino-3-(4-octylphenyl)cyclopentyl)methanol], the “Effect on whole-cell TRPM7 current (IM7)” value ([4]; 10 µM) is reported as “inhibited”.
